Source: PMC4875998, “Liposomal Systems as Nanocarriers for the Antiviral Agent Ivermectin” (International Journal of Biomaterials, 2016)

Key:
[1] = Cytotoxicity, CC50; conditions: human, Half maximal cytotoxic concentration (CC50) Huh-7, Huh-7 cells; value not marked with the 48 h footnote
[2] = test system: Huh-7 cells; assay: Cytotoxicity, CC50; conditions: read-out: Half maximal cytotoxic concentration (CC50) Huh-7; Huh-7 cells; value not marked with the 48 h footnote
[3] = test system: Japanese encephalitis; parameters: method as in PMID 22535622; conditions: in vitro; cited from earlier work
[4] = Cytotoxicity (methylene blue / MTS assay), CC50; conditions: African green monkey, Vero-F cells
[5] = Cytotoxicity (methylene blue / MTS assay), CC50; conditions: mouse, RAW 264.7 cells
[6] = test system: Vero-118 cells; assay: Cytotoxicity (methylene blue / MTS assay), CC50; conditions: cell lines of Figure 6(b) / Table 2 (Vero-118, BHK, RAW)
[7] = Cytotoxicity (methylene blue / MTS assay), CC50; conditions: African green monkey, Vero-118 cells
[8] = Cytotoxicity (methylene blue / MTS assay), CC50; conditions: hamster, BHK cells
[9] = test system: Dengue Fever; parameters: method as in PMID 22535622; conditions: in vitro; cited from earlier work
[10] = test system: Yellow Fever; conditions: in vitro; cited from earlier work
[11] = test system: tick-borne encephalitis viruses; conditions: in vitro; cited from earlier work

| SMILES | CC50 [1] [µM] | CC50 [2] [µM] | EC50 [3] | CC50 at 4 days [4] [µM] | CC50 at 4 days [5] [µM] | Times more cytotoxic in comparison to 2-cmc [6] [times] | CC50 at 4 days [7] [µM] | CC50 at 4 days [8] [µM] | EC50 [9] | EC50 [10] | EC50 [11] |
| --- | --- | --- | --- | --- | --- | --- | --- | --- | --- | --- | --- |
| CC[C@H](C)[C@H]1O[C@]2(CC[C@@H]1C)C[C@@H]1C[C@@H](C/C=C(\C)[C@@H](O[C@H]3C[C@H](OC)[C@@H](O[C@H]4C[C@H](OC)[C@@H](O)[C@H](C)O4)[C@H](C)O3)[C@@H](C)/C=C/C=C3\CO[C@@H]4[C@H](O)C(C)=C[C@@H](C(=O)O1)[C@]34O)O2 [Ivermectin, 22,23-dihydroavermectin B1] | 7.3 | 10 | submicromolar | 23.6 | 0.8 | 10 | 5.7 | 1.5 | submicromolar | subnanomolar range | submicromolar |
| C[C@@]1(O)[C@H](O)[C@@H](CO)O[C@H]1n1ccc(N)nc1=O [2-cmc, 2′-c-Methylcytidine] | – | – | – | – | 37.6 | – | 117 | 238 | – | – | – |
